3 compounds from patent publication US20090275527A1, “SKIN AGING TREATMENT COMPRISING PAEONIFLORIN” (LG HOUSEHOLD & HEALTH CARE LTD., priority 2004, published 2009) can be followed below.

For assay [1], the system named is guinea pig back skin. In words: Guinea pig back skin application for 30 days: appearance, histology, collagen (HYP) content. It counts as in vivo. The following applies: 3 (w/v)% sample; for Increase of collagenous fiber bundles (%) / Increase of collagen content in dermis (%): about 5 mg/cm^2 twice a day; for Increase of collagen content in dermis (%): HYP content. Here is the method:
(§1) 10 g of stearic acid (C18H36O2), 70 mL of water and 20 mL of glycerol, each heated to 80, were mixed homogeneously. After stirring for about 1 minute, 3 (w/v)% of paeoniflorin or vitamin E (positive control group) was added. After adding 0.1 (w/v)% of methyl paraben, stirring was performed for 1 minute. 1 mL of KOH was slowly added. After considerable emulsification had proceeded, stirring was performed until the temperature reached about 50.
(§2) Guinea pigs were grouped, each group consisting of 3 males and 3 females. An area of 3×3 cm^2 was shaved from the back of each guinea pig. For each guinea pig, the left side was treated with the sample prepared above and the right side was treated as a negative control group and a positive control group. Application was performed at 8:00 H and 16:00 H each day. Application was performed for 30 days, at about 5 mg/cm^2 each. On the 31st day, skin was taken from the back of each animal. Subcutaneous fat tissue was removed and collagen and lipid peroxide contents were measured with […]. 3) Result
Back skin tissue was impregnated with paraffin and stained with HE (hematoxylin-eosin). Change of the skin tissue was observed. Skin collagen content was determined by adding 6 N hydrochloric acid to skin and measuring the HYP (hydroxyproline) content according to the chloramine-T oxidation method.

The subject of assay [2] is fibroblasts. As to the kind of experiment: Prevention against skin cell death and aging (X-Gal staining, flow cytometer), fibroblasts. It counts as cell-based, mouse. Here is the method:
(§3) Skin tissue was taken from a red skin mouse 3 days or less old. Hypodermic tissue was removed and the skin was treated with 0.25% trypsin for 12 hours. The skin was separated into the epidermis and the dermis. The epidermis was cultured to 75% confluence in an epidermis culture medium (K-SFM). The dermis was further treated with trypsin at 37° C. for 2 hours. Fibroblasts were taken from the dermis and cultured to 75% confluence in a DMEM culture medium containing 10% serum. Cell growth and division status was confirmed by specifically staining cell DNA. β-Gal is a material for specifically marking aged skin cells. Young cells and cells in the resting phase are left intact and only aged cells are specifically stained. Cultured keratinocytes and fibroblasts were treated with a minimum amount of X-Gal, respectively, and stained at 37 for 24 hours. Aged skin cells were stained to deep blue in 2-4 hours and gave the best result in 12-16 hours (see Proc. Natl. Acad. Sci. USA, 1995, 92: 9363-7). Then, stained cells (aged cells), living cells and dead cells were counted with a flow cytometer. In Table 4, “blank” refers to the control group containing no cells.
(In general: In flow cytometry, cells or beads pass a laser one at a time.)

The test system of assay [3] is hairless mice. In words: Prevention of DNA impairment caused by UV (in vivo). The following applies: after 6 days 1 J UVB. As for the experimental part:
Prevention effect (%)=(Control value−Test value)/(Control value)×100 [Equation 2] Paeoniflorin dissolved in 80% ethanol was applied to the back of hairless mice. After 6 days, 1 J UVB was irradiated. Skin cells were taken and DNA impairment was measured.

Assay [4] concerns normal human keratinocytes. In words: Prevention of DNA impairment caused by UV (electrophoresis tail moment) in cultured keratinocytes. The following applies: for Average tail moment (n = 50) / Prevention effect (%): 12 hours, then 60 mJ UVB. In kind it is cell-based. As for the experimental part: Prevention effect of DNA impairment caused by UV of paeoniflorin prepared in Preparation Example 1 was determined for normal human skin keratinocytes.
Cultured normal human keratinocytes were treated with paeoniflorin of concentrations thereof for 12 hours. The culture medium was removed and the cells were washed with PBS. 60 mJ UVB was irradiated and DNA impairment of the cells was checked. If there is DNA strand breakage inside the cell nucleus, an extended tail is shown toward the positive electrode during electrophoresis. Thus, impairment of DNA can be easily detected by electrophoresis. The average of tail moment of 50 randomly selected cells was used as a control value. The tail moment of paeoniflorin-treated cells was averaged. The control value and the resultant test value were put in Equation 2 below to calculate paeoniflorin's prevention effect of DNA impairment caused by UV.
Prevention effect (%)=(Control value−Test value)/(Control value)×100 [Equation 2]

Assay [5] relates to GSH-Px (total glutathione peroxidase). As to the kind of experiment: Guinea pig back skin application for 30 days: GSH-Px (DNTB method). The following applies: 3 (w/v)% sample, Content by Equation 1 relative to blank group. In kind it is in vivo. Here is the method:
as §1, §2
(§4) SOD (superoxide dismutase) and GSH-Px (total glutathione peroxidase) are important antioxidative enzymes in living organisms. […]
(§5) MDA was detected using thiobarboturic acid. GSH-Px and SOD contents were measured by DNTB (5,5′-dithio-bis-2-nitrobenzoic acid) and nitrate reduction methods, respectively. […]

Assay [6] relates to SOD (superoxide dismutase). In words: Guinea pig back skin application for 30 days: SOD (nitrate reduction method). The following applies: 3 (w/v)% sample, Content by Equation 1 relative to blank group. In kind it is in vivo. Here is the method:
as §1, §2, §4, §5

In assay [7] the test system is fibroblasts. In words: Effect on fibroblast cell activity (MTT analysis). Conditions: non-treated = 0. In kind it is cell-based, mouse. Here is the method:
Skin tissue was taken from a red skin mouse 3 days or less old. Hypodermic tissue was removed and the skin was treated with 0.25% trypsin for 12 hours. The skin was separated into the epidermis and the dermis. The epidermis was cultured to 75% confluence in an epidermis culture medium (K-SFM). The dermis was further treated with trypsin at 37° C. for 2 hours. Fibroblasts were taken from the dermis and cultured to 75% confluence in a DMEM culture medium containing 10% serum. Paeoniflorin prepared in Preparation Example 1 was dissolved in the cultured keratinocytes and fibroblasts and treated to 0.0004 M. Cell count was measured by MTT [3-(4,5-dimethylthiazol-2-yl)-2,5-diphenyltetrazolium bromide)] analysis to determine cell activity. A non-treated group and a group treated with 0.002 M vitamin C were tested as control groups.

For assay [8], the system named is MDA (malondialdehyde). In words: Guinea pig back skin application for 30 days: lipid peroxide MDA (thiobarboturic acid). The following applies: 3 (w/v)% sample, Content by Equation 1 relative to blank group. In kind it is in vivo. Here is the method: as §1, §2, §4, §5
The test system of assay [9] is hairless mice. As to the kind of experiment: Prevention of wrinkles caused by UV. Conditions: 0.2% in 1,3-butylene glycol; UV 2MED, 12 weeks, three days a week. In kind it is in vivo. Here is the method: Prevention effect of wrinkles caused by UV of paeoniflorin prepared in Preparation Example 1 was evaluated as follows using hairless mice. UV was irradiated to hairless mice with a solar stimulator at 2MED (minimum erythema dose). Irradiation was performed for 12 weeks, three days a week. Of the total of 10 mice, 0.2% paeoniflorin dissolved in 1,3-butylene glycol was applied to the sample treatment group and only 1,3-butylene glycol was applied to the control group. Wrinkles of each group were compared 12 weeks later.

The subject of assay [10] is Keratinocytes. In words: Prevention against skin cell death and aging (X-Gal staining, flow cytometer), keratinocytes. In kind it is cell-based, mouse. As for the experimental part:
as §3

Where [11] appears, read: 0.01% in 80% ethanol applied to the back.
Where [12] appears, read: 0.1% in 80% ethanol applied to the back.
The mark [13] stands for this setting: 1% in 80% ethanol applied to the back.

Marks after values point to notes of the source that are not given here.

For the compound `C[C@@]12C[C@@]3(O)O[C@@H](O1)[C@]1(COC(=O)c4ccccc4)[C@H]3C[C@@]12O[C@@H]1O[C@H](CO)[C@@H](O)[C@H](O)[C@H]1O` [Paeoniflorin], in assay [1], the “Cell organelles observed in the dermis” value was “Expansion of RER (rough endoplasmie reticulum) and increase of mitochondria”; the “Histological observation (HE): change in the dermis” value is reported as “an increase in collagenous fiber bundles was observed in the dermis”; the “Histological observation (HE): change in the epidermis” value was “no significant change in the epidermis”; the “Observation with the naked eyes of treated skin” value was “significant apparent improvement, such as soft and shiny skin”. Also, in assay [1], the “Increase of collagenous fiber bundles (%)” value is listed as 18.1* % and the “Increase of collagen content in dermis (%)” value is recorded as 35.92* %. In assay [2] (0.0005 M), this compound yielded a Cell aging rate of 17.2%, a Cell death rate of 11.5% and a Cell growth rate of 18.4%. For the same compound, in assay [3] (setting [11]), the “Average tail moment (n = 50)” value turned out to be 14.968 ± 5.883 and the “Prevention effect (%)” value amounted to 40.9%. In assay [3] (setting [12]), the “Average tail moment (n = 50)” value worked out at 18.930 ± 5.969 and the “Prevention effect (%)” value came out at 25.3%. For the same compound, in assay [3] (setting [13]), the “Average tail moment (n = 50)” value was 18.363 ± 5.463 and the “Prevention effect (%)” value came out at 27.5%. Further, in assay [4] (0.0001%), the “Average tail moment (n = 50)” value is listed as 7.951 ± 1.887 and the “Prevention effect (%)” value is recorded as 16.9%. Besides, in assay [4] (0.001%), the “Average tail moment (n = 50)” value turned out to be 7.710 ± 2.161 and the “Prevention effect (%)” value turned out to be 19.4%. Besides, in [4] (0.01%), the “Average tail moment (n = 50)” value amounted to 7.409 ± 2.395 and the “Prevention effect (%)” value amounted to 22.6%. Moreover, in assay [4] (0.1%), the “Average tail moment (n = 50)” value worked out at 7.320 ± 2.534 and the “Prevention effect (%)” value stood at 23.5%. In addition, in assay [4] (treatment concentration range of 0.0001% to 0.1%), the “DNA impairment prevention effect” value is reported as “at least 16.9%”. For the same compound, the GSH-Px in assay [5] is 29.51*. The SOD in [6] is reported as 8.58*. In addition, the “Increase in cell activity (%)” value in [7] (0.0004 M) was 25.7%. The MDA in assay [8] is 29.57*. For the same compound, in assay [9], the “Not improved (number of mice, wrinkles compared to the control group)” value came out at 0; the “Significantly improved (number of mice, wrinkles compared to the control group)” value was 6; the “Slightly improved (number of mice, wrinkles compared to the control group)” value is reported as 4. In [10] (0.0005 M), this compound gave a Cell aging rate of 24.7%, a Cell death rate of 12.3% and a Cell growth rate of 55.3%.
On to `O=C1O[C@H]([C@@H](O)CO)C(O)=C1O` [vitamin C, reference compound], for which, in assay [7] (0.002 M), the “Increase in cell activity (%)” value came out at 14.4%.
As to Vitamin E [reference compound], in assay [1], the “Increase of collagenous fiber bundles (%)” value is recorded as 10.4* % and the “Increase of collagen content in dermis (%)” value is 29.86* %. In assay [2] (0.0004 M), this compound registered a Cell aging rate of 22.8%, a Cell death rate of 15.4% and a Cell growth rate of 9.96%. Also, the GSH-Px in assay [5] was 28.60*. Moreover, the SOD in [6] is recorded as 7.17*. For the same compound, the MDA in [8] is recorded as 26.71*. Further, in assay [10] (0.0004 M), the Cell aging rate stood at 20.1%, the Cell death rate is given as 10.5% and the Cell growth rate amounted to 23.3%.
